# From patent publication US9018244B2, “Benzopyran compounds, compositions and uses thereof” (Olema Pharmaceuticals, Inc., priority 2011, dated 2015)
# Entries after “also recorded” stand apart in the source; their conditions may differ.
# How the values were obtained:
# [1] = system: human MCF-7 breast cancer cells; assay: E2-stimulated proliferation of MCF-7 breast cancer cells; type: cell-based; conditions: MCF-7 cells, 100 pM E2, 6-8 days
# Procedure: FIG. 11. […] A) OP-1074 had similar potency to model anti-estrogens in inhibiting E2-stimulated proliferation of breast cells in vitro. MCF-7 cells were treated with anti-estrogens in hormone-depleted medium for 6-8 days in the presence of 100 pM E2. Proliferation was measured using Cyquant fluorescent DNA-binding dye (Invitrogen, Grand Island, N.Y.). Results were from a single representative experiment and reported as the mean percent induction relative to E2 from triplicate treatments, with error bars representing SEM. […] Results were from a single representative experiment and reported as the mean percent induction relative to E2 from triplicate treatments, with error bars representing SEM. IC50's were calculated using the least squares fit method.
# Proliferation in MCF-7 was measured using a fluorescent DNA binding dye 6-8 days after treatment in triplicate with anti-estrogens in the presence of 100 pM E2 and as described in the legend to, and depicted in FIG. 11.
# [2] = target: T1, estrogen receptor alpha (ERα) (Homo sapiens, UniProt P03372); assay: ERα expression by immunoblot after anti-estrogen treatment; type: cell-based; conditions: 100 nM anti-estrogen, 22-24 hours, serum-free medium; MCF-7 breast cells and ECC-1 endometrial cells
# T1 construct: endogenous in cells
# T1 sequence (P03372 1-595): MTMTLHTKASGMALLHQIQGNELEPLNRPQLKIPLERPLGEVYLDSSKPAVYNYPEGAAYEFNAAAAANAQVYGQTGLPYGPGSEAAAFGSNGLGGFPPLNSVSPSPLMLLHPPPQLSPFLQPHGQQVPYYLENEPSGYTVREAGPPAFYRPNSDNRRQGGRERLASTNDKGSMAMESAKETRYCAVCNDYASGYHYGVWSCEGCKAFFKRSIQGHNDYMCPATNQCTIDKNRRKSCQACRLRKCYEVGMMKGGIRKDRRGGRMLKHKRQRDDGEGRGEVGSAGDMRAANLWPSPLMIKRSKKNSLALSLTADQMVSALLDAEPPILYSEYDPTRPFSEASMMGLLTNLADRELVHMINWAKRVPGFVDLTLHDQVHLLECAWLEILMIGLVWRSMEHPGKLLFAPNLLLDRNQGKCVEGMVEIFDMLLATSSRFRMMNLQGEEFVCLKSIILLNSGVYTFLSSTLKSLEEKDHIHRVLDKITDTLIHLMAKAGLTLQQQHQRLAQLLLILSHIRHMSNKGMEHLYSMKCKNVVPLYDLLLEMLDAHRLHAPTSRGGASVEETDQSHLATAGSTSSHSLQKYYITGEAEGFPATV
# Procedure: FIG. 12. […] A) ERα levels in breast cells after treatment with OP-1074 compared to treatment with model anti-estrogens. MCF-7 cells were treated with 100 nM anti-estrogen for 24 hours in serum-free medium and protein extracts immunoblotted with an antibody to ERα (D12, Santa Cruz Biotechnology, Santa Cruz, Calif.). Image is from a single representative experiment and number on top denotes the mean percent ERα expression relative to vehicle from quadruplicate treatments. B) OP-1038 induces degradation of ERα in both MCF-7 breast cells and ECC-1 endometrial cells.
# ERα expression was detected in MCF-7 cell lysates treated with 100 nM anti-estrogens in serum-free medium for 22-24 hours and immunoblotted with an antibody specific to ERα as described in the legend to, and depicted in FIG. 12.
# [3] = system: E2-stimulated AP activity in ECC-1 cells; assay: Inhibition of E2-stimulated AP activity in ECC-1 cells (antagonist mode); type: cell-based, human; conditions: in the presence of 500 pM E2
# Text: FIG. 2. Alkaline phosphatase (AP) activity in ECC-1 cells correlates with the uterine wet weight of ovariectomized rats, as reported previously in Scafonas, et al. (*; Scafonas et al. “Agonist-like SERM effects on ER alpha-mediated repression of MMPI promoter activity predict in vivo effects on bone and uterus. J Steroid Biochem Mol. Biol. 2008 110(3-5):197-206) and Labrie, et al. (†; Labrie et al. “The combination of a novel selective estrogen receptor modulator with an estrogen protects the mammary gland and uterus in a rodent model: the future of postmenopausal women's health?” Endocrinology. 2003 144(11):4700-6). ECC-1 cells were treated with 500 pM 17β-estradiol (E2) or 1-5 nM anti-estrogens in hormone-depleted medium for 3 days. Note that the racemic mixture of acolbifene, EM-343, was used in the in vitro AP assay. AP activity was measured by incubating a chromogenic AP substrate, p-nitrophenyl phosphate, at 40° C. for 40 minutes followed by measuring the absorbance at 405 nm. Results were from a single representative experiment and reported as the mean percent induction relative to E2 from triplicate treatments, with error bars representing SEM.
# FIG. 6. […] A) Comparison of inhibition of E2-stimulated AP activity of various benzopyran compounds (right) compared to published reference compounds (left). ECC-1 cells were treated with 100 nM anti-estrogens in the presence of 500 pM E2 and AP activity was measured as described in FIG. 2. Note that OP-1038 was statistically different from EM-343 and Gauthier compound Ia (p<0.0001 (exact p values stated in graph), calculated using Student's t-test). Results were from a single representative experiment and reported as the mean percent induction relative to E2 from triplicate treatments, with error bars representing SEM. […] IC50's were calculated using the least squares fit method. *Aragon Compound 28 was statistically different from equivalent dose of OP-1038 (p≦0.01, calculated using Student's t-test). […]
# Method for performing the alkaline phosphatase (AP) assay. […] Absorbance was read at 405 nm using a plate spectophotometer. […]
SMILES,Antagonism of E2-stimulated proliferation [1],Degradation of ERα [2],Inhibition of E2-stimulated AP activity [3]
"CC1=C(c2ccc(O)cc2)C(c2ccc(OCCN3CC[C@@H](C)C3)cc2)Oc2cc(O)ccc21 (stereo partly drawn) [OP-1038, 3-(4-hydroxyphenyl)-4-methyl-2-(4-{2-[(3R)-3-methylpyrrolidin-1-yl]ethoxy}phenyl)-2H-chromen-7-ol]",improved potency; also recorded: potent antagonists,comparable to fulvestrant; also recorded: induce degradation,more potent than Aragon Cpd. 28; also recorded: inhibit E2-stimulated AP activity; also recorded: more anti-estrogenic than EM-343 and EM-652
"CC1=C(c2ccc(O)cc2)[C@H](c2ccc(OCCN3CC[C@@H](C)C3)cc2)Oc2cc(O)ccc21 [OP-1074, (2S)-3-(4-hydroxyphenyl)-4-methyl-2-(4-{2-[(3R)-3-methylpyrrolidin-1-yl]ethoxy}phenyl)-2H-chromen-7-ol]",improved potency; also recorded: potent antagonists,comparable to fulvestrant; also recorded: induce degradation,inhibit E2-stimulated AP activity; also recorded: more anti-estrogenic than EM-343 and EM-652; also recorded: inhibited E2-stimulated AP activity in a dose dependent manner
